Starred links: 1 amine or outer side, 2 acyl side, 3 side chain; linkers in the order of their positions; H or OH if unused. Non-standard residues stand in square brackets, D forms with d. Residues, ends and D or L forms follow the SMILES beside them. *: point of attachment. Arg(Nω,Nω'-propylene) = N[C@@H](CCCNC1=NCCCN1)C(=O)O; dPro(cis-4-NH2) = N[C@H]1CN[C@@H](C(=O)O)C1; Oic = O=C(O)[C@@H]1C[C@@H]2CCCC[C@@H]2N1; Pro(4R-NH2) = N[C@H]1CN[C@H](C(=O)O)C1; dPro(3S-OH) = O=C(O)[C@@H]1NCC[C@@H]1O; 1Nal = N[C@@H](Cc1cccc2ccccc12)C(=O)O; 2Nal = N[C@@H](Cc1ccc2ccccc2c1)C(=O)O; Pro(3S-OH) = O=C(O)[C@H]1NCC[C@@H]1O; Tiq1c(1S) = O=C(O)[C@H]1NCCc2ccccc21; X2 = O=C([C@H](Cn1ncnn1)N[*:1])[*:2]; cisHyp = O=C(O)[C@@H]1C[C@H](O)CN1; Pyrazinecarbonyl = O=C(c1cnccn1)*; Tic = O=C(O)[C@@H]1Cc2ccccc2CN1; Agp = N=C(N)NC[C@H](N)C(=O)O; Chg = N[C@H](C(=O)O)C1CCCCC1; 2Pyrimidinyl = c1cnc(*)nc1; dPip = O=C(O)[C@H]1CCCCN1; Orn = NCCC[C@H](N)C(=O)O; Bn = c1ccc(C*)cc1

For the assay, the target named is T1, CXCR7 (Homo sapiens, UniProt P25106).
T1 construct: host or cells: CHO (PathHunter CHO-CXCR7 β-arrestin cells)
T1 sequence (P25106 whole entry): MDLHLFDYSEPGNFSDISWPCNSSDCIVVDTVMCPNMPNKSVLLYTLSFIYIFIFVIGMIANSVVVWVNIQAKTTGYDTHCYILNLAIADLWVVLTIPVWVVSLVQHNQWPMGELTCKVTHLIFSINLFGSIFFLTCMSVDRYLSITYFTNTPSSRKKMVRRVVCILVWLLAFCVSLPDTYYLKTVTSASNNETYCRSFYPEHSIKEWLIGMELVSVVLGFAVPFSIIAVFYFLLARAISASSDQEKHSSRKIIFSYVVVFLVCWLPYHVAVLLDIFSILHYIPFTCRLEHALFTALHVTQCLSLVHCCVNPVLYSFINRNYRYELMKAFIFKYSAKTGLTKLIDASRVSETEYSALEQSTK
Put plainly: CXCR7 β-arrestin recruitment assay (PathHunter CHO-CXCR7, DiscoverX), agonistic assay. The assay is classed as cell-based. Conditions: agonistic assay; CHO CXCR7 β-arrestin cells; 90 min at 37° C.; chemiluminescence; read-out: β-Arrestin EC50. As to the method:
Lyophilized peptides were weighed on a Microbalance (Mettler MX5) and dissolved in DMSO to a final concentration of 10 mM unless otherwise stated. Stock solutions were kept at +4° C., and protected from light.
2.2 CXCR7 β-Arrestin Recruitment Assay
The PathHunter CHO-CXCR7 (DiscoverX) assay was performed according to the manufacturer's protocol. In brief, CHO CXCR7 β-arrestin cells were seeded at a density of 5000 cells per well in 40 μl of F12 medium in black 96-half volume well culture plates and incubated overnight at 37° C. in a humidified atmosphere with 5% CO2. The next day, serial dilutions of PEM compounds have been prepared in DMSO and subsequently diluted in HBSS buffer containing 0.1% BSA.
For agonistic assay, 10 μl of compound solution or a solution of stromal cell-derived factor-1 (SDF-1) as positive control was added to the cells with a final DMSO concentration of 1% (v/v). The plate was incubated for 90 min at 37° C. in 5% CO2 incubator with gentle shaking (300 rpm) before addition of 40 μl of detection reagent per well. Reaction was developed for 90 min at room temperature in the dark with shaking, and chemiluminescence was measured with a Topcount (Perkin Elmer) luminescence counter.
Take `CC[C@H](C)[C@@H]1NC(=O)[C@H]([C@@H](C)O)NC(=O)[C@H]2CCCN2C(=O)[C@H](Cc2c[nH]c3ccccc23)NC(=O)[C@H](CNC(=N)N)NC(=O)[C@@H](CCCNC(=N)N)NC1=O` [Ex. 23, cyclo(-Ile-^DArg-Agp-Trp-^DPro-Thr-)] (cyclo([Agp]W[dP]TI[dR])): the EC50 worked out at 0.0905 ± 0.0607 µM.
With `CC[C@H](C)[C@@H]1NC(=O)[C@H]([C@@H](C)O)NC(=O)[C@H]2CCCN2C(=O)[C@H](Cc2c[nH]c3ccccc23)NC(=O)[C@H](CCCNc2ncccn2)NC(=O)[C@@H](CCCNC(=N)N)NC1=O` [Ex. 68, cyclo(-Ile-^DArg-Orn(Ar2)-Trp-^DPro-Thr-)] (cyclo(I[dR][Orn](2Pyrimidinyl)W[dP]T)), the EC50 was found to be 0.453 ± 0.186 µM.
As to `CC[C@H](C)[C@@H]1NC(=O)[C@H]([C@@H](C)O)NC(=O)[C@H]2CCCN2C(=O)[C@H](Cc2ccc(O)cc2)NC(=O)[C@H](CCCNC(=N)N)NC(=O)[C@@H](CCCNC(=N)N)NC1=O` [Ex. 2, cyclo(-Ile-^DArg-Arg-Tyr-^DPro-Thr-)] (cyclo(I[dR]RY[dP]T)), the EC50 is 0.0837 ± 0.0774 µM.
Next, `C[C@@H](O)[C@@H]1NC(=O)[C@H]2CCCN2C(=O)[C@H](Cc2c[nH]c3ccccc23)NC(=O)[C@H](CCCNC(=N)N)NC(=O)[C@@H](CCCNC(=N)N)NC(=O)[C@H](C2CCCCC2)NC1=O` [compound 59, cyclo(-Chg-^DArg-Arg-Trp-^DPro-Thr-)] (cyclo([Chg][dR]RW[dP]T)): 0.0067 ± 0.0022 µM.
As to `N=C(N)NCCC[C@@H]1NC(=O)[C@H](Cc2c[nH]c3ccccc23)NC(=O)[C@@H](Cc2ccccc2)NC(=O)[C@H](Cc2c[nH]c3ccccc23)NC(=O)[C@@H]2C[C@H](OCc3ccccc3)CN2C(=O)[C@H]2C[C@@H](N)CN2C1=O` [compound 50, cyclo(-Trp-^DPhe-Trp-Arg-^DPro((4R)NH2)-(4S)-Hyp(Bn)-)] (cyclo(R[dPro(cis-4-NH2)][cisHyp](Bn)W[dF]W)), the half-maximal effective concentration (EC50) was determined as 0.0066 ± 0.0016 µM.
Regarding `N=C(N)NCCC[C@@H]1NC(=O)[C@H](Cc2c[nH]c3ccccc23)NC(=O)[C@@H](Cc2ccccc2)NC(=O)[C@H](Cc2c[nH]c3ccccc23)NC(=O)[C@@H]2C[C@@H](N)CN2C(=O)[C@H]2CCCN2C1=O` [compound 45, cyclo(-Trp-^DPhe-Trp-Arg-^DPro-Pro((4R)NH2)—)] (cyclo(R[dP][Pro(4R-NH2)]W[dF]W)), the EC50 came out at 0.0269 ± 0.0126 µM.
With `N=C(N)NCCC[C@@H]1NC(=O)[C@@H]2C[C@@H]3CCCC[C@@H]3N2C(=O)[C@H]2C[C@@H](N)CN2C(=O)[C@H](CCCNC(=N)N)NC(=O)[C@H](Cc2c[nH]c3ccccc23)NC(=O)[C@@H](Cc2ccccc2)NC1=O` [compound 42, cyclo(-Arg-^DPhe-Trp-Arg-^DPro((4R)NH2)-Oic-)] (cyclo([Oic]R[dF]WR[dPro(cis-4-NH2)])), the EC50 was 0.0205 ± 0.0109 µM.
In the case of `O=C1N[C@H](Cc2ccccc2)C(=O)N[C@@H](Cc2c[nH]c3ccccc23)C(=O)N[C@@H](CCCNC2=NCCCN2)C(=O)N2CCCC[C@@H]2C(=O)N2CC[C@H](O)[C@H]2C(=O)N[C@H]1Cc1c[nH]c2ccccc12` [Ex. 73, cyclo(-Trp-^DPhe-Trp-Orn(A56)-^DPip-Pro((3S)OH)—)] (cyclo(W[dF]W[Arg(Nω,Nω'-propylene)][dPip][Pro(3S-OH)])), the EC50 was 0.014 ± 0.0001 µM.
`N[C@@H]1C[C@@H]2C(=O)N3CCc4ccccc4[C@H]3C(=O)N[C@@H](Cc3c[nH]c4ccccc34)C(=O)N[C@H](Cc3ccccc3)C(=O)N[C@@H](Cc3c[nH]c4ccccc34)C(=O)N[C@@H](CCCNC3=NCCCN3)C(=O)N2C1` [compound 79, cyclo(-Trp-^DPhe-Trp-Orn(A56)-^DPro((4R)NH2)-Tiq-)] (cyclo(W[dF]W[Arg(Nω,Nω'-propylene)][dPro(cis-4-NH2)][Tiq1c(1S)])): the EC50 came to 0.0469 ± 0.0125 µM.
The value for `NCCC[C@@H]1NC(=O)[C@H](Cc2c[nH]c3ccccc23)NC(=O)[C@@H](Cc2ccccc2)NC(=O)[C@H](Cc2c[nH]c3ccccc23)NC(=O)[C@@H]2Cc3ccccc3CN2C(=O)[C@H]2C[C@@H](N)CN2C1=O` [Ex. 29, cyclo(-Trp-^DPhe-Trp-Orn-^DPro((4R)NH2)-Tic-)] (cyclo([Orn][dPro(cis-4-NH2)][Tic]W[dF]W)) was 0.0261 ± 0.0167 µM; that for `C[C@@H](O)[C@@H]1NC(=O)[C@H]2CCCN2C(=O)[C@H](Cc2c[nH]c3ccccc23)NC(=O)[C@H](CCCNC(=N)N)NC(=O)[C@@H](CCCNC(=N)N)NC(=O)[C@H](Cc2cccc3ccccc23)NC1=O` [Ex. 10, cyclo(-1Nal-^DArg-Arg-Trp-^DPro-Thr-)] (cyclo([1Nal][dR]RW[dP]T)) was 0.0285 ± 0.0126 µM; that for `CC[C@H](C)[C@@H]1NC(=O)[C@H]([C@@H](C)O)NC(=O)[C@H]2CCCN2C(=O)[C@H](Cc2c[nH]c3ccccc23)NC(=O)[C@H](CCCNC(=O)c2cnccn2)NC(=O)[C@@H](CCCNC(=N)N)NC1=O` [compound 64, cyclo(-Ile-^DArg-Orn(A41)-Trp-^DPro-Thr-)] (cyclo(I[dR][Orn](Pyrazinecarbonyl)W[dP]T)) was 0.518 ± 0.0209 µM.
The value for `C[C@@H]1NC(=O)[C@@H]2Cc3ccccc3CN2C(=O)[C@H]2C[C@@H](N)CN2C(=O)[C@H](CCCNC(=N)N)NC(=O)[C@H](Cc2c[nH]c3ccccc23)NC(=O)[C@@H](Cc2ccccc2)NC1=O` [compound 27, cyclo(-Ala-^DPhe-Trp-Arg-^DPro((4R)NH2)-Tic-)] (cyclo(A[dF]WR[dPro(cis-4-NH2)][Tic])) was 0.322 ± 0.0482 µM; that for `CC[C@H](C)[C@@H]1NC(=O)[C@H]([C@@H](C)O)NC(=O)[C@H]2CCCN2C(=O)[C@H](Cc2c[nH]c3ccccc23)NC(=O)[C@H](CCCNC(=N)N)NC(=O)[C@@H](CCCCN)NC1=O` [compound 11, cyclo(-Ile-^DLys-Arg-Trp-^DPro-Thr-)] (cyclo(I[dK]RW[dP]T)) was 0.0867 ± 0.0097 µM.
Next, `CC[C@H](C)[C@@H]1NC(=O)[C@H]([C@@H](C)O)NC(=O)[C@H]2CCCN2C(=O)[C@H](Cc2c[nH]c3ccccc23)NC(=O)[C@H](CCCNC(=N)N)NC(=O)[C@@H]([C@H](C)O)NC1=O` [Ex. 7, cyclo(-Ile-^DThr-Arg-Trp-^DPro-Thr-)] (cyclo(I[dT]RW[dP]T)): 0.0532 ± 0.0358 µM.
As to `N=C(N)NCCC[C@@H]1NC(=O)[C@@H](CCCNC(=N)N)NC(=O)[C@H](Cc2cccc3ccccc23)NC(=O)[C@@H]2[C@@H](O)CCN2C(=O)[C@H]2CCCN2C(=O)[C@H](Cc2c[nH]c3ccccc23)NC1=O` [compound 52, cyclo(-1Nal-^DArg-Arg-Trp-^DPro-Pro((3S)OH)—)] (cyclo([1Nal][dR]RW[dP][Pro(3S-OH)])), the EC50 amounted to 0.0137 ± 0.0051 µM.
For the molecule `N=C(N)NCCC[C@@H]1NC(=O)[C@H](Cc2c[nH]c3ccccc23)NC(=O)[C@@H](Cc2ccccc2)NC(=O)[C@H](Cc2c[nH]c3ccccc23)NC(=O)[C@@H]2Cc3ccccc3CN2C(=O)[C@H]2C[C@@H](N)CN2C1=O` [compound 26, cyclo(-Trp-^DPhe-Trp-Arg-^DPro((4R)NH2)-Tic-)] (cyclo(R[dPro(cis-4-NH2)][Tic]W[dF]W)), the EC50 was determined as 0.0061 ± 0.0033 µM.
With `CC[C@H](C)[C@@H]1NC(=O)[C@H]([C@@H](C)O)NC(=O)[C@H]2[C@@H](O)CCN2C(=O)[C@H](Cc2c[nH]c3ccccc23)NC(=O)[C@H](CCCNC(=N)N)NC(=O)[C@@H](CCCNC(=N)N)NC1=O` [Ex. 55, cyclo(-Ile-^DArg-Arg-Trp-^DPro((4S)OH)-Thr-)] (cyclo(I[dR]RW[dPro(3S-OH)]T)), the EC50 was 0.632 ± 0.0233 µM.
Regarding `CC[C@H](C)[C@@H]1NC(=O)[C@@H]2[C@@H](O)CCN2C(=O)[C@H]2CCCCN2C(=O)[C@H](Cc2c[nH]c3ccccc23)NC(=O)[C@H](CCCNC(=N)N)NC(=O)[C@@H](CCCNC(=N)N)NC1=O` [Ex. 54, cyclo(-Ile-^DArg-Arg-Trp-^DPip-Pro((3S)OH)—)] (cyclo(I[dR]RW[dPip][Pro(3S-OH)])), the EC50 was determined as 0.0082 ± 0.0034 µM.
For `N=C(N)NCCC[C@@H]1NC(=O)[C@H](Cc2c[nH]c3ccccc23)NC(=O)[C@@H](Cc2ccccc2)NC(=O)[C@H](Cn2ncnn2)NC(=O)[C@@H]2Cc3ccccc3CN2C(=O)[C@H]2C[C@@H](N)CN2C1=O` [compound 75, cyclo(-Ala(Tet)-^DPhe-Trp-Arg-^DPro((4R)NH2)-Tic-)] (cyclo(R[dPro(cis-4-NH2)][Tic][X2][dF]W)), the EC50 was 0.0281 ± 0.0051 µM.
In the case of `CC[C@H](C)[C@@H]1NC(=O)[C@@H]2[C@@H](O)CCN2C(=O)[C@H]2CCCN2C(=O)[C@H](Cc2ccc3ccccc3c2)NC(=O)[C@H](CCCNC(=N)N)NC(=O)[C@@H](CCCNC(=N)N)NC1=O` [compound 53, cyclo(-Ile-^DArg-Arg-2Nal-^DPro-Pro((3S)OH)—)] (cyclo([2Nal][dP][Pro(3S-OH)]I[dR]R)), the half-maximal effective concentration (EC50) was found to be 0.0768 ± 0.0479 µM.
Next, `N=C(N)NCCC[C@@H]1NC(=O)[C@@H]2C[C@H](OCc3ccccc3)CN2C(=O)[C@H]2CCCN2C(=O)[C@H](CCCNC(=N)N)NC(=O)[C@H](Cc2c[nH]c3ccccc23)NC(=O)[C@@H](Cc2ccccc2)NC1=O` [Ex. 48, cyclo(-Arg-^DPhe-Trp-Arg-^DPro-(4S)-Hyp(Bn)-)] (cyclo(R[dF]WR[dP][cisHyp](Bn))): 0.0769 ± 0.0247 µM.
Next, `NCCCC[C@@H]1NC(=O)[C@H](Cc2c[nH]c3ccccc23)NC(=O)[C@@H](Cc2ccccc2)NC(=O)[C@H](Cc2c[nH]c3ccccc23)NC(=O)[C@@H]2Cc3ccccc3CN2C(=O)[C@H]2C[C@@H](N)CN2C1=O` [compound 31, cyclo(-Trp-^DPhe-Trp-Lys-^DPro((4R)NH2)-Tic-)] (cyclo(K[dPro(cis-4-NH2)][Tic]W[dF]W)): 0.138 ± 0.115 µM.

For the origin of these results see patent publication US9637520B2, “Template-fixed peptidomimetics with CXCR7 modulating activity” (POLYPHOR AG, priority 2010, dated 2017).
